Experimental data published in patent US12239645B2, “Targeted dosing for the treatment of complement mediated disorders” (Achillion Pharmaceuticals, Inc., priority 2018, dated 2025).
Like-named read-outs stand apart in the source and are kept apart here.

Assays:
Assay type in all cases: in vivo, human
[1] = MAD study, two additional single-dose cohorts: pharmacokinetics; conditions: for AUC(0-t) / Cmax / Tmax / AUC(0-inf): human, plasma, oral; for AUC(0-inf): read-out: AUC0-inf, Mean
Protocol: A multiple ascending dose (MAD) study of Compound 1 with two additional single-dose cohorts was also completed. […] Secondary objectives included evaluation of the pharmacokinetic (PK) profile and the relationship between Compound 1 PK and pharmacodynamic (PD) characteristics, that is, the inhibition of complement alternative pathway (AP) activity (PK/PD). In the MAD study, multiple-dose pharmacokinetics and pharmacodynamics of Compound 1 were evaluated in four dose groups administered Compound 1 (40, 80, 120 and 200 mg BID) in the fasted state for 14-days (Table 3). Eight subjects received active drug in each group; eight subjects received placebo in the first dose group (40 mg) and two subjects received placebo in each of the other three dose groups. Two additional cohorts were administered Compound 1 at single doses of 240 mg (fasted subjects) and 120 mg (fed subjects) (Table 3). The two single-dose cohorts each comprised six subjects receiving active drug and two subjects receiving placebo. Plasma and serum samples for PK and PD assessment were collected on selected days prior to dosing (at local troughs), and on days 1, 7, and 14 at 0.5-hour to 2-hour intervals for more detailed assessment.

[2] = tested on: complement alternative pathway (AP) functional activity; experiment: SAD study: alternative pathway functional activity by AP Wieslab assay
Protocol: (§1) […] were dosed and evaluated in 4 dose groups with ten subjects receiving placebo (Table 1). The first dose group had 6 active and 6 placebo subjects; subsequent groups had 6 active and 2 placebo subjects each. Each group was followed for 28 days after dosing. All subjects were monitored for safety through the last scheduled visit at Day 28. Blood and urine samples were collected at predefined time points from Days 1 to 4 to determine plasma and urine concentrations of Compound 1 and from Days 1 to 7 to determine complement related activities. Results of serum AP activity measured by AP Wieslab assay as well as plasma Bb, factor D level and several other PD biomarkers were determined.
For all subjects, blood samples were collected at specific protocol-defined time points from Day 1 to 7 to determine serum AP activity ex vivo using AP hemolysis assay and AP Wieslab assay.
A graphical display of mean complement AP functional activity (% relative to positive control) through Day 7 (reported in days) and within 24 hours of dosing (by randomized treatment group and overall) can be found in FIG. 8B and FIG. 8A, respectively.

[3] = Phase I single ascending dose (SAD) study: plasma and urine pharmacokinetics; conditions: for Aeu(%), GM / Aeu(%), Mean: percentage of dose
Protocol: A single ascending dose (SAD) study was the first-in-human study of Compound 1. […] Secondary objectives included evaluation of the pharmacokinetic (PK) profile and the relationship between Compound 1 PK and pharmacodynamic (PD) characteristics, that is, the inhibition of complement alternative pathway (AP) activity (PK/PD).
as §1
For the 18 subjects comprising the Groups 1-3 SAD PK population, a total of 306 plasma samples (17 samples from each subject collected pre-dose and 0.5, 1, 1.5, 2, 2.5, 3, 4, 6, 8, 10, 12, 16, 24 [Day 2], 48 [Day 3], 72 [Day 4], and 144 [Day 7] hours post-dose) were available for PK determination in plasma.
Single ascending doses of Compound 1 were evaluated to determine plasma and urine PK parameters over the dose range of 40 mg to 120 mg studied. Summary statistics for plasma and urine Compound 1 concentration at each nominal sampling time point are presented by randomized treatment group in Table 2.

[4] = 120 mg single dose, fed moderate fat meal
[5] = 120 mg single dose, moderate-fat meal vs fasted (SAD)
[6] = 40 mg single dose, fasted, plasma
[7] = 40 mg single dose, fasted, urine
[8] = 80 mg single dose, fasted, plasma
[9] = 80 mg single dose, fasted, urine
[10] = 120 mg single dose, fasted, plasma
[11] = 120 mg single dose, fasted, urine

Compound: CC(=O)c1nn(CC(=O)N2[C@H](C(=O)Nc3nc(Br)ccc3C)C[C@@]3(C)C[C@@H]23)c2ccc(-c3cnc(C)nc3)cc12 [Compound 1, (1R,3S,5R)-2-(2-(3-acetyl-5-(2-methylpyrimidin-5-yl)-1H-indazol-1-yl)acetyl)-N-(6-bromo-3-methylpyridin-2-yl)-5-methyl-2-azabicyclo[3.1.0]hexane-3-carboxamide]
- t½term, Mean [1, 4]: 9.39 h
- mean AUC lower in the fed state vs fasted [1, 5]: 00.8%
- mean Cmax lower in the fed state vs fasted [1, 5]: 2.2%
- t½term, Mean ([1]; 240 mg single dose, fasted): 9.33 h
- AUC(0-t) ([1]; 120 mg, 120 mg single dose, fed moderate fat meal, read-out: AUC(0-12), Mean): 1250 ng·h/mL
- AUC(0-t) ([1]; 120 mg, 120 mg single dose, fed moderate fat meal, read-out: AUC(0-72), Mean): 1490 ng·h/mL
- AUC(0-t) ([1]; 240 mg, 240 mg single dose, fasted, read-out: AUC(0-12), Mean): 2770 ng·h/mL
- AUC(0-t) ([1]; 240 mg, 240 mg single dose, fasted, read-out: AUC(0-72), Mean): 3510 ng·h/mL
- Cmax [1, 4]: 309 ng/mL
- Tmax [1, 4]: 2.83 h
- AUC(0-inf) [1, 4]: 1490 ng·h/mL
- Cmax ([1]; 240 mg single dose, fasted): 594 ng/mL
- Tmax ([1]; 240 mg single dose, fasted): 2.67 h
- AUC(0-inf) ([1]; 240 mg single dose, fasted): 3520 ng·h/mL
- time mean inhibition of 90% or greater maintained post-dosing ([2]; 40 mg dose group): at least 6 hours
- time of nadir in AP functional activity post-dose ([2]; 40 mg dose group): 1.5 h
- lowest mean (±SD) AP functional activity (relative to positive control) ([2]; 40 mg single dose): 1.25 (±1.153) %
- time of nadir in AP functional activity post-dose ([2]; 80 mg and 120 mg dose groups): 3 h
- lowest mean (±SD) AP functional activity (relative to positive control) ([2]; 80 mg single dose): 0.13 (±0.097) %
- lowest mean (±SD) AP functional activity (relative to positive control) ([2]; 120 mg single dose): 0.09 (±0.102) %
- Inhibition of AP functional activity ([2]; all subjects, by 2 hours post-dose): > 90%
- Inhibition of AP functional activity ([2]; all treated subjects, 0.5 hours post-dose): > 80%
- time mean inhibition of 90% or greater maintained post-dosing ([2]; higher dose groups studied): at least 10 hours
- Maximum mean plasma concentration ([3]; 40 mg single dose): 78.03 ± 19.65 ng/mL
- CL/F, GM [3, 6]: 81.26 L/h
- CL/F, Mean [3, 6]: 84.27 L/h
- t½term, GM [3, 6]: 12.51 h
- t½term, Mean [3, 6]: 13.08 h
- Aeu, GM [3, 7]: 0.0671 mg
- Aeu, Mean [3, 7]: 0.0749 mg
- Aeu(%), GM [3, 7]: 0.17%
- Aeu(%), Mean [3, 7]: 0.19%
- Maximum mean plasma concentration ([3]; 80 mg single dose): 224.05 ± 108.27 ng/mL
- CL/F, GM [3, 8]: 63.52 L/h
- CL/F, Mean [3, 8]: 70.25 L/h
- t½term, GM [3, 8]: 9.80 h
- t½term, Mean [3, 8]: 9.92 h
- Aeu, GM [3, 9]: 0.2045 mg
- Aeu, Mean [3, 9]: 0.3058 mg
- Aeu(%), GM [3, 9]: 0.26%
- Aeu(%), Mean [3, 9]: 0.38%
- Maximum mean plasma concentration ([3]; 120 mg single dose): 282.83 ± 89.15 ng/mL
- CL/F, GM [3, 10]: 71.87 L/h
- CL/F, Mean [3, 10]: 73.25 L/h
- t½term, GM [3, 10]: 12.67 h
- t½term, Mean [3, 10]: 13.90 h
- Aeu, GM [3, 11]: 0.2683 mg
- Aeu, Mean [3, 11]: 0.2913 mg
- Aeu(%), GM [3, 11]: 0.22%
- Aeu(%), Mean [3, 11]: 0.24%
- last post-dose time point with detected plasma concentration ([3]; all SAD dose groups): 72 h
- CL renal ([3]; human, plasma and urine, oral, 40 mg to 120 mg single dose, read-out: Renal clearance, geometric mean, range over dose groups): 2.67 to 3.17 mL/min
- AUC(0-inf) ([3]; human, plasma, oral, 40 mg, 40 mg single dose, fasted, plasma, read-out: AUC0-inf, GM): 492 ng·h/mL
- AUC(0-inf) ([3]; human, plasma, oral, 40 mg, 40 mg single dose, fasted, plasma, read-out: AUC0-inf, Mean): 514 ng·h/mL
- Cmax ([3]; human, plasma, oral, 40 mg, 40 mg single dose, fasted, plasma, read-out: Cmax, GM): 85.3 ng/mL
- Cmax ([3]; human, plasma, oral, 40 mg, 40 mg single dose, fasted, plasma, read-out: Cmax, Mean): 88.6 ng/mL
- Cmax ([3]; human, plasma, oral, 40 mg, 40 mg single dose, fasted, plasma, read-out: Cmax, Median): 79.1 ng/mL
- Vd/F ([3]; human, plasma, oral, 40 mg, 40 mg single dose, fasted, plasma, read-out: Vz/F, GM): 1470 L
- Vd/F ([3]; human, plasma, oral, 40 mg, 40 mg single dose, fasted, plasma, read-out: Vz/F, Mean): 1500 L
- Tmax ([3]; human, plasma, oral, 40 mg, 40 mg single dose, fasted, plasma, read-out: tmax, GM): 1.65 h
- Tmax ([3]; human, plasma, oral, 40 mg, 40 mg single dose, fasted, plasma, read-out: tmax, Mean): 1.75 h
- Tmax ([3]; human, plasma, oral, 40 mg, 40 mg single dose, fasted, plasma, read-out: tmax, Median): 1.5 h
- AUC(0-inf) ([3]; human, plasma, oral, 80 mg, 80 mg single dose, fasted, plasma, read-out: AUC0-inf, GM): 1260 ng·h/mL
- AUC(0-inf) ([3]; human, plasma, oral, 80 mg, 80 mg single dose, fasted, plasma, read-out: AUC0-inf, Mean): 1390 ng·h/mL
- Cmax ([3]; human, plasma, oral, 80 mg, 80 mg single dose, fasted, plasma, read-out: Cmax, GM): 232 ng/mL
- Cmax ([3]; human, plasma, oral, 80 mg, 80 mg single dose, fasted, plasma, read-out: Cmax, Mean): 253 ng/mL
- Cmax ([3]; human, plasma, oral, 80 mg, 80 mg single dose, fasted, plasma, read-out: Cmax, Median): 247 ng/mL
- Vd/F ([3]; human, plasma, oral, 80 mg, 80 mg single dose, fasted, plasma, read-out: Vz/F, GM): 899 L
- Vd/F ([3]; human, plasma, oral, 80 mg, 80 mg single dose, fasted, plasma, read-out: Vz/F, Mean): 992 L
- Tmax ([3]; human, plasma, oral, 80 mg, 80 mg single dose, fasted, plasma, read-out: tmax, GM): 1.85 h
- Tmax ([3]; human, plasma, oral, 80 mg, 80 mg single dose, fasted, plasma, read-out: tmax, Mean): 2 h
- Tmax ([3]; human, plasma, oral, 80 mg, 80 mg single dose, fasted, plasma, read-out: tmax, Median): 1.75 h
- AUC(0-inf) ([3]; human, plasma, oral, 120 mg, 120 mg single dose, fasted, plasma, read-out: AUC0-inf, GM): 1670 ng·h/mL
- AUC(0-inf) ([3]; human, plasma, oral, 120 mg, 120 mg single dose, fasted, plasma, read-out: AUC0-inf, Mean): 1710 ng·h/mL
- Cmax ([3]; human, plasma, oral, 120 mg, 120 mg single dose, fasted, plasma, read-out: Cmax, GM): 303 ng/mL
- Cmax ([3]; human, plasma, oral, 120 mg, 120 mg single dose, fasted, plasma, read-out: Cmax, Mean): 316 ng/mL
- Cmax ([3]; human, plasma, oral, 120 mg, 120 mg single dose, fasted, plasma, read-out: Cmax, Median): 260 ng/mL
- Vd/F ([3]; human, plasma, oral, 120 mg, 120 mg single dose, fasted, plasma, read-out: Vz/F, GM): 1310 L
- Vd/F ([3]; human, plasma, oral, 120 mg, 120 mg single dose, fasted, plasma, read-out: Vz/F, Mean): 1460 L
- Tmax ([3]; human, plasma, oral, 120 mg, 120 mg single dose, fasted, plasma, read-out: tmax, GM): 2.54 h
- Tmax ([3]; human, plasma, oral, 120 mg, 120 mg single dose, fasted, plasma, read-out: tmax, Mean): 2.58 h
- Tmax ([3]; human, plasma, oral, 120 mg, 120 mg single dose, fasted, plasma, read-out: tmax, Median): 2.75 h
- half-life ([3]; human, plasma, oral, 40 mg to 120 mg single dose, read-out: Mean terminal elimination half-life (t1/2 term), range over dose groups): 9.92 to 13.9 h
- Tmax ([3]; human, plasma, oral, 40 mg to 120 mg single dose, read-out: Median tmax, range over dose groups): 1.5 to 2.75 h
- CL renal ([3]; human, urine, oral, 40 mg, 40 mg single dose, fasted, urine, read-out: CLr, GM (converted)): 2.67 mL/min
- CL renal ([3]; human, urine, oral, 40 mg, 40 mg single dose, fasted, urine, read-out: CLr, Mean (converted)): 2.67 mL/min
- CL renal ([3]; human, urine, oral, 80 mg, 80 mg single dose, fasted, urine, read-out: CLr, GM (converted)): 3 mL/min
- CL renal ([3]; human, urine, oral, 80 mg, 80 mg single dose, fasted, urine, read-out: CLr, Mean (converted)): 3.5 mL/min
- CL renal ([3]; human, urine, oral, 120 mg, 120 mg single dose, fasted, urine, read-out: CLr, GM (converted)): 3.17 mL/min
- CL renal ([3]; human, urine, oral, 120 mg, 120 mg single dose, fasted, urine, read-out: CLr, Mean (converted)): 3.5 mL/min
